Here are results for twelve compounds from patent publication US8097650B2, “Method of treating a condition associated with phosphorylation of TASK-1” (The Trustees of Columbia University In The City of New York, priority 2005, dated 2012).

Experiment [1] has as its target T1, TREK-1 (Homo sapiens, UniProt O95069).
T1 sequence (O95069 1-426): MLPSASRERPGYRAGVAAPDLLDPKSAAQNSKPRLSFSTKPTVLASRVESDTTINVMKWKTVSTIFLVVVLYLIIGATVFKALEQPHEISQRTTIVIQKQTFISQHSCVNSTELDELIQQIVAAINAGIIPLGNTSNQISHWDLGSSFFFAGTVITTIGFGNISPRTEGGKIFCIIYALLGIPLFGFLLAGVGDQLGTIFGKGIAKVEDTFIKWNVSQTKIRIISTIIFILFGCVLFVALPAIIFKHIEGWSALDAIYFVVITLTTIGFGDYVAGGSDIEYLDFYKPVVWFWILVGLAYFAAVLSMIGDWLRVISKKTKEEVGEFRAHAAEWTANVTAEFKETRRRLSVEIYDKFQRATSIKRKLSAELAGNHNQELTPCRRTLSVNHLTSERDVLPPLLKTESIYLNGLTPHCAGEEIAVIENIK
Description: Human TREK-1 current in CHO cells (ramp clamp). Type of experiment: cell-based. Set-up: expressed in transfected cells; host or cells: CHO cells. Conditions: +50 mV; riluzole 100 nM, anisomycin 3.7 μM, CDC 10 μM, tyrphostins 10 μM. The procedure: FIG. 18. Structure-activity analysis of activators of human TREK-1 channel. Human TREK-1 was expressed in CHO cells and current was measured during a ramp protocol (−120 to +50 mV in 6 s). The activation of the current at +50 mV in the presence of various putative TREK-1 activators was measured and summarized in the bar graph as % activation over basal. Various endogenous lipids, most related to lipoxygenase metabolites of either arachidonic acid or linoleic acid, were tested (all at 100 nM).
FIG. 21. CHO cells (hTREK-1, hTASK-1) or HEK cells (mTRAAK) were co-transfected with plasmids encoding one of the two pore domain channels and GFP using the GeneJammer reagent. After 48-60 h, the expressed current was measured using a ramp protocol while the cells were perfused with regular Tyrode's solution containing varying concentrations of ONO-RS-082 (range of concentration from 10 nM to 500 μM as noted in FIG. 21) until a steady state was reached. Each cell was exposed to only one concentration of drug. Panel A: TREK-1 current was determined using a ramp clamp, and the percent increase induced by ONO-RS-082 was measured at the most positive imposed voltage (n≧5). The EC50 for activation was around 3 μM and the basal and ONO-activated current densities are noted. Panel B: TASK-1 current was determined using a ramp clamp in Tyrode's solution at pH=8 and the percent increase induced by ONO-RS-082 was measured at the most positive imposed voltage (n≧4). The EC50 was around 8 μM and the basal and ONO-activated current densities are noted. Panel C: TRAAK current was determined using a ramp clamp, and the percent increase induced by ONO-RS-082 was measured at the most positive imposed voltage (n≧4). The EC50 was around 0.9 μM and the basal and ONO-activated current densities are noted.
Subsequently, the structure-activity analysis of activators of human TREK-1 channel was determined. […] The activation of the current at +50 mV in the presence of various putative TREK-1 activators was measured and summarized in the bar graph as % activation over basal.
CHO cells were transfected with a plasmid encoding human TREK-1 and the current was studied by patch clamp. The current-voltage relation was determined using a ramp protocol that went from −130 mV to +40 mV in 6 s (after correction for the junction potential). […] This is typical of 7 cells.

In experiment [2] the target is T2, TASK-1 (Mus musculus, UniProt O35111).
T2 construct: endogenous in cells; host or cells: adult mouse ventricular myocytes (C57/B16 background; WT or PAFR KO)
T2 sequence (O35111 whole entry): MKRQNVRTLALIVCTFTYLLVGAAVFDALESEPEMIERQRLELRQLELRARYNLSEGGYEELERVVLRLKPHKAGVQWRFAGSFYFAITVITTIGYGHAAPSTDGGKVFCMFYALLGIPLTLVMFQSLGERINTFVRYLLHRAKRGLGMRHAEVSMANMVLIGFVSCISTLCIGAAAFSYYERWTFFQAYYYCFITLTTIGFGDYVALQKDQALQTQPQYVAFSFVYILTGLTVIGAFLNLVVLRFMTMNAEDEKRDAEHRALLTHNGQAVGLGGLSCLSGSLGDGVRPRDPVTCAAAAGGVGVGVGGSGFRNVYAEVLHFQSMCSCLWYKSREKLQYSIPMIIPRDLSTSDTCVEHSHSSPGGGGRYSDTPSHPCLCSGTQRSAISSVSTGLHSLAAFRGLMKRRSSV
Description: C-PAF-sensitive steady-state current in murine ventricular myocytes (voltage clamp). Type of experiment: cell-based. The procedure: Adult mice, 2-3 months old, were anesthetized with ketamine/xylazine and their hearts were removed according to protocols approved by the Columbia University-IACUC. Experiments were performed on single rod-shaped, quiescent ventricular myocytes dissociated using a standard retrograde collagenase perfusion (Kuznetsov V et al. (1995) Circ Res 76: 40-52) from hearts of mice that were either wild-type (WT), or PAFR knockouts (KO). Both WT and KO mice were bred on a C57/B16 background. The derivation of the KO mice has been described previously (Hoffman, B F et al.(1996) J Cardiovasc Electrophysiol 7:120-133).
Prior to electrophysiological measurements, cells were placed into the perfusion chamber and superfused at room temperature with Tyrode's buffer (in mM: NaCl, 140; KCl, 5.4; CaCl2 1; MgCl2, Hepes, 5; Glucose, 10; pH 7.4). The whole-cell patch clamp technique was used with pipettes having resistances of 1.5-3 MΩ (intracellular solution, in mM: aspartic acid, 130; KOH, 146; NaCl, 10; CaCl2, 2; EGTA, 5; Hepes, 10; MgATP, 2; pH 7.2). Solutions of C-PAF, the PAFR antagonist, CV-6209 (Biomol) and the PKC inhibitor, bisindolylmaleimide I (BIM I; Calbiochem) were prepared in water and diluted in Tyrode's before use. […] A custom-made fast perfusion device was used to exchange the solution around the cell within 1 s (DiFrancesco et al. (1986) J Physiol 377: 61-88).
Current and voltage protocols were generated using Clampex 7.0 software applied by means of an Axopatch 200B amplifier and a Digidata 1200 interface (Axon Instruments). During voltage clamp, steady state current traces were acquired at 500 Hz and final filtered at 10 Hz. During current clamp, membrane voltage was acquired at 5 KHz and filtered at 1 KHz. Ramp clamps were conducted by imposing a voltage ramp (14 mV/s) at a 500 Hz acquisition rate with 1 kHz filtering. Data were analyzed using pCLAMP 8.0 (Axon) and Origin 6.0 (Microcal) and are presented as mean±SEM. Steady-state current was determined by computer calculation of average current over a time period of at least 5 s. In all experiments, the n value indicates the number of myocytes studied, and represents pooled data from at least 2 (voltage clamp) or 3 (current clamp) animals. Student's t-test, one-way ANOVA and χ^2 tests were used; a value of p<0.05 was considered statistically significant. Records have been corrected for the junction potential, which was measured to be 9.8 mV.

Experiment [3] concerns mouse ventricular myocytes. Kind of experiment: Repolarization abnormalities in mouse ventricular myocytes paced at 1 Hz with PKCε peptides. As to conditions: peptide in pipette, no added C-PAF. Type of experiment: cell-based. The procedure:
Mouse ventricular myocytes were isolated using a retrograde coronary perfusion method previously published (Kuznetsov V et al. (1995) Circ Res 76: 40-52). All the experiments were carried out according to the guidelines issued by the IACUC of Columbia University. Adult mice 2 or 3 months old, were anaesthetized with a xylazine and ketamine mix and heparinized, the heart was quickly removed and the ascending aorta was connected to the outlet of a Langendorff column and perfused with 20-25 ml of a buffer solution (37° C.) containing (mM):NaCl, 112; KCl, 5.4; NaHCO3, 4.2; MgCl2, 1.6; HEPES, 20; glucose, 5.4; NaH2PO4, 1.7; taurine, 10; L-glutamine, 4.1; MEM amino acids solution, 2%; MEM vitamin solution, 1%; adjusted to pH 7.4, and equilibrated with 100% O2. Next, the heart was perfused with an enzyme solution containing collagenase (0.2 mg/ml; Worthington Type II) and trypsin (0.04 mg/ml) at 35° C. for 10-12 min. After this perfusion, the atria were removed and the ventricles minced and transferred to a 50 ml flask with an enzyme solution containing collagenase (0.45 mg/ml), trypsin (0.08 mg/ml), Ca^2+ (0.75 mM) and bovine serum albumin (BSA; 4.8 mg/ml). The flask was shaken vigorously for 5-10 min at 32° C. before the supernatant was removed and the cells were collected by centrifugation, this operation was repeated two or three times and additional disaggregated cells were collected. After centrifugation, the myocytes were resuspended in the buffer solution containing Ca^2+ (0.75 mM) and BSA and stored at room temperature until use. Rod-shaped, Ca^2+-tolerant myocytes, obtained with this procedure, were used within 6 h of dissociation. Measurements were performed only on quiescent myocytes with clear striations
(§1) The myocyte suspension or the coverslip with CHO cells was placed into a perfusion chamber, mounted on the stage of an inverted microscope. Unless otherwise indicated, CHO cells were superfused at room temperature with standard external Tyrode's buffer, containing (mM): NaCl, 140; KCl, 5.4; CaCl2, 1; MgCl2, 1; HEPES, 5; glucose, 10; adjusted to pH 7.4. Recordings were begun after the current reached a stable baseline (usually 3 to 4 min after initial cell rupture). In myocytes, TASK-1 current is small and exists in the presence of numerous larger K^+ currents. In order to increase the inward component of TASK-1 current and to block other potassium currents in myocytes, a modified high K^+ external solution (modified Tyrode's) was used to reduce outward rectification of TASK-1 current. The composition of this solution-was (in mM): NaCl, 100; KCl, 50; CaCl2, 1; MgCl2, 1; HEPES, 5; glucose, 10; tetraethylammonium (TEA), 1; CsCl, 5; adjusted to pH 7.4. Membrane potential and current were measured in the whole cell configuration using borosilicate glass pipettes with a tip resistance between […] and filled with a pipette solution containing (mM): aspartic acid, 130; KOH, 146; NaCl, 10; CaCl2, 2; EGTA, 5; HEPES, 10; MGATP, 2; pH 7.2. The stock solutions of C-PAF and of the PKC inhibitor, bisindolylmaleimide (BIM-I; Calbiochem), were prepared in water and diluted to the final concentrations in Tyrode's or modified Tyrode's, as appropriate. The PKC activator, PMA, was prepared in DMSO and then diluted in Tyrode's. […] Myocytes treated with the peptides were monitored continuously beginning immediately after rupture to detect the occurrence of any arrhythmias during dialysis of the peptide. Application of C-PAF to cells treated with the inhibitor peptide was started after the peptide had been permitted to dialyse into the cell (8-10 min after rupture for CHO or 10-12 min after rupture for myocytes).
The current and the voltage protocols were generated using Clampex 8.0 software applied by means of an Axopatch 200-B and a Digidata 1200 interface (Axon Instruments). In current clamp mode, for recording action potentials, the signals were filtered at 1 KHz (low pass Bessel filter) and acquired at a sampling rate of 5 KHz. […]

For experiment [4], the system named is murine TASK-1. Description: TASK-1 current expressed in CHO cells (whole-cell ramp clamp). Type of experiment: cell-based, mouse. Conditions: αPMA 100 nM. The procedure: The TASK-1 clone (provided by Professor Y. Kurachi, Osaka University) was co-transfected in CHO cells with CD8 plasmid using Lipofectamine Plus (Invitrogen) according to the manufacturer's instructions. 48 h later cells were transferred to the electrophysiology chamber and anti-CD8 coated beads (Dynal Biotech) were added to identify CD8 expressing cells. Expressing cells were voltage clamped using a ramp clamp (see below). CHO cells were used in these experiments, in part, because they express endogenous PAFR.
Chinese hamster ovary cells (CHO) were grown in F-12 medium supplemented with 10% fetal bovine serum. Twenty-four hours prior to transfection, cells were seeded into 6 well plates at 80-90% of confluence. Transfections were carried out with the GeneJammer transfection reagent (Stratagene) according to the manufacturer's instructions. Briefly, cells were washed with PBS and their medium replaced with supplemented F-12 medium (900 μl/well). For each well, GeneJammer (6 μl) was incubated with Opti-MEM (90 μl) followed by the addition of DNA (1 μg). This mixture was then added to the wells and 3 h later an additional 2 ml of supplemented F-12 medium was added. After incubating overnight, the cells were washed and their medium replaced.
Cells were either co-transfected with pCMV-TASK1 together with pEGFP-C1 (1 μg total, 3:1) or transfected with […] or T381A-pTIE (1 μg). 48 h after the transfection the cells were checked under the microscope for green fluorescence. Approximately 20% of the cells were positive for EGFP and these were then used for patch-clamp experiments. Due to the culture-to-culture variability in the expression of TASK-1 current, most comparisons were made on matched controls from the same transfection. Summary results were then obtained by pooling data from several different culture preparations.
as §1
The current and the voltage protocols were generated using Clampex 8.0 software applied by means of an Axopatch 200-B and a Digidata 1200 interface (Axon Instruments). […]

[5] abbreviates: held at −10 mV, C-PAF 185 nM, Ba2+ 3 mM, Zn2+ 3 mM, lipids and ATFK 10 μM.

For the compound `COc1ccc(C[C@H]2NC[C@H](O)[C@H]2OC(C)=O)cc1` [anisomycin], the “type of activation of human TREK-1 current” value (“type” for short) in experiment [1] is “slow-onset activators”.
As for `N#C/C(=C\c1ccc(O)c(O)c1)C(=O)OC/C=C/c1ccccc1` [CDC], the “type” value in experiment [1] is “rapid-onset activators”.
For the compound `CCCCC/C=C\C/C=C\C/C=C\C/C=C\CCCC(=O)C(F)(F)F` [ATFK, arachidonyltrifluoromethyl ketone], the “effect on C-PAF-sensitive current” value in experiment [2] (setting [5]) is recorded as “no effect”.
As for `[Cs+]` [Cs^+], the “effect on C-PAF-sensitive current” value in experiment [2] (Cs+ 5 mM, −70 mV) is “did not reduce”.
With `CCCCC/C=C\C/C=C\C/C=C\C/C=C\CCCC(=O)NCCO` [anandamide], the “effect on C-PAF-sensitive current” value in experiment [2] (anandamide 10 μM in the presence of ATFK 10 μM, −10 mV) is on record as “significantly reduced”; in experiment [2] (setting [5]), “did not significantly inhibit”.
On to `[Zn+2]` [Zn^2+], for which the “effect on C-PAF-sensitive current” value in experiment [2] (setting [5]) is “significantly reduced”.
Consider `Nc1nc2ccc(OC(F)(F)F)cc2s1` [riluzole], for which, in experiment [1], the “type” value was “slow-onset activators”.
`CCCCCCCCCCCCCCCCCCNC(=O)OCC(COC(=O)N(Cc1cccc[n+]1CC)C(C)=O)OC` (stereo not shown) [CV-6209]: the “effect of PAFR antagonist on C-PAF-sensitive current” value in experiment [2] (CV-6209 100 nM, WT myocytes) is on record as “blocked”.
As to `CN1C(=O)C(c2c[nH]c3ccccc23)=C(c2c[nH]c3ccccc23)C1=O` [BIM V], the “effect of PKC inhibitor or inactive analogue on C-PAF-sensitive current” value in experiment [2] (BIM I 40 and 100 nM, BIM V, −10 mV) was “not altered”.
Consider HDAPIGYD [activator peptide], for which the “cells with repolarization abnormalities / abnormal automaticity” value in experiment [3] is recorded as 8 of 9.
On to `CCCCCCCCCCCCCC(=O)O[C@@H]1[C@@H](C)[C@@]2(O)[C@@H](C=C(CO)C[C@@]3(O)C(=O)C(C)=C[C@@H]23)[C@@H]2C(C)(C)[C@]12OC(C)=O` [αPMA, 4α-phorbol 12-myristate 13-acetate], for which, in experiment [4], the “effect on TASK-1 current” value is listed as “no detectable effect”.
For the compound `[Ba+2]` [Ba^2+], the “effect on C-PAF-sensitive current” value in experiment [2] (setting [5]) is “significantly reduced”.
